In PubChem BioAssay (NCI):
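GI50 marks 50% less growth. TGI denotes the concentration required for complete inhibition of growth.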

How the values were obtained:
Test in all cases: DTP human tumour cell line panel, 384-well format
[1] = tested on: MDA-MB-231 breast
[2] = tested on: K-562 leukemia
[3] = tested on: M14 melanoma
[4] = tested on: HCC-2998 colon
[5] = tested on: NCI-H322M lung
[6] = tested on: NCI-H226 lung
[7] = tested on: MOLT-4 leukemia
[8] = tested on: UACC-62 melanoma
[9] = tested on: KM12 colon
[10] = tested on: SF-539 CNS
[11] = tested on: SF-268 CNS
[12] = tested on: SNB-19 CNS
[13] = tested on: HT29 colon
[14] = tested on: 786-0 renal
[15] = tested on: SK-MEL-28 melanoma
[16] = tested on: COLO 205 colon
[17] = tested on: SK-MEL-5 melanoma
[18] = tested on: MDA-MB-468 breast
[19] = tested on: TK-10 renal
[20] = tested on: MDA-MB-435 melanoma
[21] = tested on: SR leukemia
[22] = tested on: MALME-3M melanoma
[23] = tested on: OVCAR-3 ovarian
[24] = tested on: SN12C renal
[25] = tested on: PC-3 prostate
[26] = tested on: SW-620 colon
[27] = tested on: ACHN renal
[28] = tested on: NCI-H460 NSCLC
[29] = tested on: NCI/ADR-RES ovarian
[30] = tested on: SF-295 CNS
[31] = tested on: OVCAR-4 ovarian
[32] = tested on: UACC-257 melanoma
[33] = tested on: SK-OV-3 ovarian
[34] = tested on: A549 NSCLC
[35] = tested on: RXF 393 renal
[36] = tested on: A498 renal
[37] = tested on: HCT-15 colon
[38] = tested on: EKVX NSCLC
[39] = tested on: IGROV1 ovarian
[40] = tested on: HS 578T breast
[41] = tested on: SNB-75 CNS
[42] = tested on: CCRF-CEM leukemia
[43] = tested on: HOP-62 NSCLC
[44] = tested on: HOP-92 NSCLC
[45] = tested on: OVCAR-5 ovarian
[46] = tested on: LOX IMVI melanoma
[47] = tested on: T-47D breast
[48] = tested on: OVCAR-8 ovarian
[49] = tested on: BT-549 breast
[50] = tested on: CAKI-1 renal
[51] = tested on: U251 glioblastoma
[52] = tested on: DU-145 prostate
[53] = tested on: NCI-H522 lung
[54] = tested on: NCI-H23 lung
[55] = tested on: MCF7 breast

## Nc1ncc(-c2cnn(CCO)c2)c2scc(-c3ccc(NC(=O)Nc4cccc(F)c4)cc3)c12
[1]
  GI50: 1010 nM
  TGI: 3190 nM
[2]
  GI50: 16.7 nM
  TGI: 42.9 nM
[3]
  GI50: 147 nM
  TGI: 1140 nM
[4]
  GI50: 1160 nM
  TGI: 2550 nM
[5]
  GI50: 634 nM
  TGI: 2890 nM
[6]
  GI50: 238 nM
  TGI: 2090 nM
[7]
  GI50: < 10 nM
  TGI: < 10 nM
[8]
  GI50: 376 nM
  TGI: 1640 nM
[9]
  GI50: < 10 nM
  TGI: 1210 nM
[10]
  GI50: 169 nM
  TGI: 1110 nM
[11]
  GI50: 354 nM
  TGI: 1920 nM
[12]
  GI50: 836 nM
  TGI: 2550 nM
[13]
  GI50: 507 nM
  TGI: 2640 nM
[14]
  GI50: 373 nM
  TGI: 1740 nM
[15]
  GI50: 402 nM
  TGI: 1720 nM
[16]
  GI50: < 10 nM
  TGI: 241 nM
[17]
  GI50: 807 nM
  TGI: 2070 nM
[18]
  GI50: 18.8 nM
  TGI: 74.9 nM
[19]
  GI50: 920 nM
  TGI: 3620 nM
[20]
  GI50: 317 nM
  TGI: 1890 nM
[21]
  GI50: < 10 nM
  TGI: < 10 nM
[22]
  GI50: 53.5 nM
  TGI: 646 nM
[23]
  GI50: 188 nM
  TGI: 2010 nM
[24]
  GI50: 179 nM
  TGI: 555 nM
[25]
  GI50: 1270 nM
  TGI: 3730 nM
[26]
  GI50: 242 nM
  TGI: 1130 nM
[27]
  GI50: 352 nM
  TGI: 1770 nM
[28]
  GI50: < 10 nM
  TGI: 1060 nM
[29]
  GI50: 363 nM
  TGI: 10000 nM
[30]
  GI50: 186 nM
  TGI: 1370 nM
[31]
  GI50: 674 nM
  TGI: 2380 nM
[32]
  GI50: 311 nM
  TGI: 1390 nM
[33]
  GI50: 297 nM
  TGI: 1300 nM
[34]
  GI50: 263 nM
  TGI: 3770 nM
[35]
  GI50: 275 nM
  TGI: 1460 nM
[36]
  GI50: 312 nM
  TGI: 1720 nM
[37]
  GI50: 349 nM
  TGI: 1720 nM
[38]
  GI50: 1030 nM
  TGI: 2980 nM
[39]
  GI50: 385 nM
  TGI: 2550 nM
[40]
  GI50: 226 nM
  TGI: 943 nM
[41]
  GI50: 172 nM
  TGI: 740 nM
[42]
  GI50: < 10 nM
  TGI: < 10 nM
[43]
  GI50: 309 nM
  TGI: 1810 nM
[44]
  GI50: 238 nM
  TGI: 1100 nM
[45]
  GI50: 612 nM
  TGI: 2200 nM
[46]
  GI50: 318 nM
  TGI: 1320 nM
[47]
  GI50: 1450 nM
  TGI: 3310 nM
[48]
  GI50: 315 nM
  TGI: 2130 nM
[49]
  GI50: 323 nM
  TGI: 1280 nM
[50]
  GI50: 212 nM
  TGI: 1200 nM
[51]
  GI50: 812 nM
  TGI: 2170 nM
[52]
  GI50: 462 nM
  TGI: 2380 nM
[53]
  GI50: 220 nM
  TGI: 928 nM
[54]
  GI50: 178 nM
  TGI: 603 nM
[55]
  GI50: 318 nM
  TGI: 1830 nM
